From patent US20130143812A1, “ANTI-INFLAMMATORY DRUG” (SEKISUI MEDICAL CO., LTD., priority 2010, published 2013)

Columns and labels:
RAW264.7 cells [1] = assay: Expression of M2 macrophage markers in RAW264.7 cells cultured with activin A and SB431542; assay type: cell-based; conditions: SB431542 0.1 to 1 μM added with activin A, 24 hours
Description: Activin A (10 ng/mL or 30 ng/mL) and SB431542 (0.1 to 1 μM, Santa Cruz Biotechnology, Inc., sc-204265) were added to RAW264.7 cells in combination as depicted in FIG. 2. Human Recombinant (R&D Systems, 338AC005) was used for activin A. After 24 hours, RNeasy Mini Kit (250) (Qiagen, Cat. Number 74106) was used for recovering the cells to extract RNA. The RNA extracted at step (1) was used for performing a reverse transcription reaction in accordance with the protocol of High Capacity cDNA Reverse Transcription Kit with RNase Inhibitor (ABI) to perform TaqMan PCR. Arginase-1, Mrc2 (mannose receptor 2), and IL-10 were selected as M2 macrophage markers to create respective TaqMan probes.

RAW264.7 cells [2] = assay: Macrophage marker expression in RAW264.7 cells with activin A, activin B or SB431542 and palmitic acid; assay type: cell-based; conditions: for expression level of IL-6 / expression level of MCP-1 / expression level of arginase-1: compared to control
Description: (1) Induction of Macrophages by Activin Species Activin A (10 ng/mL), activin B (10 ng/mL), and SB431542 (0.1 to 1 μM) were added to RAW264.7 cells in combination as depicted in FIG. 4. Human Recombinant (R&D Systems, 338AC005) and Recombinant (R&D Systems, 659AB005) were used for activin A and activin B, respectively. After 30 minutes, palmitic acid (a proinflammatory substance) was added to the final concentration of 200 μM and, after eight hours, RNeasy Mini Kit (250) (Qiagen, Cat. Number 74106) was used for recovering the cells to extract RNA. The RNA extracted at step (1) was used for performing a reverse transcription reaction in accordance with the protocol of High Capacity cDNA Reverse Transcription Kit with RNase Inhibitor (ABI) to perform TaqMan PCR. Arginase-1 was selected as an M2 macrophage marker and IL-6 and MCP-1 were selected as M1 macrophage markers to create respective TaqMan probes. Analysis was performed in the same way as the expression analysis of macrophage markers of Example 1.

RAW264.7 cells [3] = assay: Macrophage marker expression in RAW264.7 cells with activin A, activin B or Fstl3 and palmitic acid; assay type: cell-based; conditions: palmitic acid 200 μM
Description: (§1) Activin A (10 ng/mL), activin B (10 ng/mL), and Fstl3 (3 to 30 ng/mL) were added to RAW264.7 cells in combination as depicted in FIG. 5. Human Recombinant (R&D Systems, 338AC005), Recombinant (R&D Systems, 659AB005), and Follistatin-like 3 Recombinant (R&D Systems, 1255F3025) were used for activin A, activin B, and Fstl3, respectively. After 30 minutes, palmitic acid (a proinflammatory substance) was added to the final concentration of 200 μM and, after eight hours, RNeasy Mini Kit (250) (Qiagen, Cat. Number 74106) was used for recovering the cells to extract RNA.
Analysis was performed in the same way as Example 4. For each of palmitic acid, activin species, and Fstl3, the expression level is represented by a ratio when a measurement value of each marker relative to a measurement value of cyclophilin A in non-additive control is defined as one.

RAW264.7 cells [4] = assay: Arginase-1 expression in RAW264.7 cells with activin A, Fstl3, anti-Fstl3 antibody or mouse IgG and palmitic acid; assay type: cell-based; conditions: Fstl3 30 ng/mL present with activin A 10 ng/mL, palmitic acid 200 μM
Description: as §1, with “Fstl3 (30 ng/mL), an anti-Fstl3 antibody or mouse IgG (0.3 to 10 μg/mL), and activin” for “Activin”, “(10” for “(10 ng/mL), activin B (10 ng/mL), and Fstl3 (3 to 30”, “6.” for “5.”
The RNA extracted at step (1) was used for performing a reverse transcription reaction in accordance with the protocol of High Capacity cDNA Reverse Transcription Kit with RNase Inhibitor (ABI) to perform TaqMan PCR. Arginase-1 was selected as an M2 macrophage marker to create TaqMan probes.

RAW264.7 cells [5] = assay: Expression of M2 and M1 macrophage markers in RAW264.7 cells cultured with activin A or activin B (TaqMan PCR); assay type: cell-based; conditions: 10 or 30 ng/mL added individually, 8 hours
Description: Each of activin A (10 ng/mL or 30 ng/mL) and activin B (10 ng/mL or 30 ng/mL) was individually added to RAW264.7 cells. Human Recombinant (R&D Systems, 338AC005) and Recombinant (R&D Systems, 659AB005) were used for activin A and activin B, respectively. After eight hours, RNeasy Mini Kit (250) (Qiagen, Cat. Number 74106) was used for recovering the cells to extract RNA.
The RNA extracted at step (1) was used for performing a reverse transcription reaction in accordance with the protocol of High Capacity cDNA Reverse Transcription Kit with RNase Inhibitor (ABI) to perform TagMan PCR. Arginase-1 was selected as an M2 macrophage marker and IL-6 and MCP-1 were selected as M1 macrophage markers to create respective TaqMan probes. Each of mRNA expression levels is represented by a multiple when an expression level of cyclophilin A mRNA in the same sample is defined as one (hereinafter, the same applies to the examples using TaqMan PCR unless otherwise stated).

db/db mice = assay: Arginase-1 mRNA expression in visceral fat of db/db mice given recombinant adenovirus; assay type: in vivo; conditions: activin expressed by recombinant adenovirus via tail vein once a week for two weeks, compared to control
Source text: (§2) Full-length mouse inhibin βA cDNA or full-length mouse inhibin βB cDNA was amplified by using pcDNA3.1/V5-HisA (Invitrogen) in accordance with the recommended method. The amplified product was subjected to HindIII and EcoRV treatments and used for production of recombinant adenovirus. The recombinant adenovirus of inhibin βA or inhibin βB was produced by using Takara Adenovirus Expression Vector Kit (Takara) in accordance with the recommended method. For negative control, β-galactosidase-gene-containing virus attached to the kit was used. The adenovirus was transfected to HEK293 cells by using CellPhect (registered trademark) Transfection Kit (GE Healthcare) with the calcium phosphate method.
After seven-week-old male db/db mice were adapted for one week, 5.0×10^11 pfu/mL of the recombinant adenovirus was lysed in 150 μL of PBS and administered from the tail vein once a week for two weeks. Visceral fat was collected on seventh day after the second administration for performing a reverse transcription reaction in accordance with the protocol of High Capacity cDNA Reverse Transcription Kit with RNase Inhibitor (ABI) and the expression analysis of arginase-1 was performed with TaqMan PCR.

[6] = tested on: high-fat diet-fed B6 mice; assay: Arginase-1 mRNA expression in visceral fat of high-fat diet-fed B6 mice given recombinant adenovirus; assay type: in vivo; conditions: twelve-week high-fat diet B6 mice, activin expressed by recombinant adenovirus via tail vein once a week for two weeks
Source text: as §2
After five-week-old male B6 mice were adapted with normal diet for one week, high-fat diet was fed for twelve weeks. The recombinant adenovirus (5.0×10^11 pfu/mL) was lysed in 150 μL of PBS and administered to mice in the 18th week from the tail vein once a week for two weeks. Visceral fat was collected on seventh day after the second administration for performing reverse transcription in accordance with the protocol of High Capacity cDNA Reverse Transcription Kit with RNase Inhibitor (ABI) and the expression analysis of arginase-1 was performed with TaqMan PCR.

[7] = tested on: high-fat diet-fed B6 mice; assay: Glucose tolerance test (GTT) in high-fat diet-fed B6 mice given recombinant adenovirus; assay type: in vivo; conditions: activin expressed by recombinant adenovirus, glucose 1.0 mg/g-BW into abdominal cavity
Description: Adenovirus was produced in the same way as the production of recombinant adenovirus in Example 3.
After five-week-old male B6 mice were adapted with normal diet for one week, high-fat diet was fed for twelve weeks. The recombinant adenovirus (5.0×10^11 pfu/mL) was lysed in 150 μL of PBS and administered to mice in the 18th week from the tail vein once a week for two weeks. A glucose tolerance test (GTT) was performed on seventh day after the second administration.
The GTT was performed as follows. Into the abdominal cavities of mice fasted for 16 hours from the previous day of the test, 1.0 mg/g-BW of glucose (diluted by physiological saline) was administered. Serum was separated from collected whole blood and glucose concentration was measured by Glucose-Test Wako (manufactured by Wako Pure Chemical Industries).

[8] = SB431542 0.1 to 1 μM with palmitic acid 200 μM, absence of activin species
[9] = SB431542 0.1 to 1 μM, activin A 10 ng/mL and palmitic acid 200 μM present
[10] = SB431542 0.1 to 1 μM, activin B 10 ng/mL and palmitic acid 200 μM present
[11] = SB431542 only (0.1 to 1 μM), without palmitic acid
[12] = palmitic acid 200 μM, absence of activin species, 8 hours
[13] = activin 10 ng/mL, palmitic acid 200 μM, 8 hours

NC(=O)c1ccc(-c2nc(-c3ccc4c(c3)OCO4)c(-c3ccccn3)[nH]2)cc1 [SB431542]
activin A-induced increase in expression of arginase-1, Mrc2 and IL-10 (RAW264.7 cells [1]): reduced to the same level as control
expression level of IL-6, effect of SB431542 (RAW264.7 cells [2]; [8]): constantly increased depending on the additive concentration
palmitic acid-induced increase of MCP-1 expression, effect of SB431542 (RAW264.7 cells [2]; [8]): not changed
expression level of IL-6, effect of SB431542 (RAW264.7 cells [2]; [9]): constantly increased depending on the additive concentration
expression level of arginase-1, effect of SB431542 (RAW264.7 cells [2]; [9]): reduced depending on the additive concentration
palmitic acid-induced increase of MCP-1 expression, effect of SB431542 (RAW264.7 cells [2]; [9]): not changed
expression level of IL-6, effect of SB431542 (RAW264.7 cells [2]; [10]): constantly increased depending on the additive concentration
expression level of arginase-1, effect of SB431542 (RAW264.7 cells [2]; [10]): reduced depending on the additive concentration
palmitic acid-induced increase of MCP-1 expression, effect of SB431542 (RAW264.7 cells [2]; [10]): not changed
expression level of IL-6 (RAW264.7 cells [2]; [11]): not changed or were slightly changed
expression level of MCP-1 (RAW264.7 cells [2]; [11]): not changed or were slightly changed
expression level of arginase-1 (RAW264.7 cells [2]; [11]): not changed or were slightly changed

CCCCCCCCCCCCCCCC(=O)O [palmitic acid]
expression level of IL-6 (RAW264.7 cells [2]; [12]): remarkably increased
expression level of MCP-1 (RAW264.7 cells [2]; [12]): remarkably increased
expression level of arginase-1 (RAW264.7 cells [2]; [12]): not changed or was slightly changed
expression of IL-6, effect of palmitic acid (RAW264.7 cells [3]; 8 hours): increased
expression of MCP1, effect of palmitic acid (RAW264.7 cells [3]; regardless of the presence of activin species, change negligible): increased

B1: Fstl3: Follistatin-like 3 Recombinant (R&D Systems, 1255F3025); binds to activins and inhibits binding to their receptor (protein, UniProt O95633 27-263, looked up)
Follistatin-related protein 3: MGSGNPAPGGVCWLQQGQEATCSLVLQTDVTRAECCASGNIDTAWSNLTHPGNKINLLGFLGLVHCLPCKDSCDGVECGPGKACRMLGGRPRCECAPDCSGLPARLQVCGSDGATYRDECELRAARCRGHPDLSVMYRGRCRKSCEHVVCPRPQSCVVDQTGSAHCVVCRAAPCPVPSSPGQELCGNNNVTYISSCHMRQATCFLGRSIGVRHAGSCAGTPEEPPGGESAEEEENFV
expression of arginase-1, effect of Fstl3 (RAW264.7 cells [3]; Fstl3 30 ng/mL added concurrently with activin A 10 ng/mL): reduced
expression level of MCP1, effect of FSTL3 (RAW264.7 cells [3]; Fstl3 3 to 30 ng/mL): not changed
expression level of arginase-1, effect of FSTL3 (RAW264.7 cells [4]): reduced to the same level as the control

B2: activin B: Recombinant (R&D Systems, 659AB005); in Examples 3 and 7 expressed by inhibin βB recombinant adenovirus (protein, UniProt P09529 293-407, looked up)
Inhibin beta B chain: GLECDGRTNLCCRQQFFIDFRLIGWNDWIIAPTGYYGNYCEGSCPAYLAGVPGSASSFHTAVVNQYRMRGLNPGTVNSCCIPTKLSTMSMLYFDDEYNIVKRDVPNMIVEECGCA
modifications: Inhibin beta B chain homodimer
expression level of IL-6 (M1 macrophage marker) (RAW264.7 cells [5]): not changed
expression level of MCP-1 (M1 macrophage marker) (RAW264.7 cells [5]): not changed
expression of arginase-1 (M2 macrophage marker) (RAW264.7 cells [5]; mRNA relative to cyclophilin A): remarkably increased
expression of arginase-1 in visceral fat (db/db mice): remarkably increased
expression level of arginase-1 in visceral fat [6]: similarly increased
expression level of arginase-1 (RAW264.7 cells [2]; activin 10 ng/mL present, palmitic acid 200 μM added, 8 hours): remarkably increased
expression level of MCP-1, effect of activin addition (RAW264.7 cells [2]; [13]): not changed
expression of IL-6, effect of activin addition (RAW264.7 cells [2]; [13]): slightly reduced
glucose metabolism in glucose tolerance test (GTT) [7]: improved glucose metabolism
